Reference: PMC2779488, “Integrating In Silico and In Vitro Analysis of Peptide Binding Affinity to HLA-Cw*0102: A Bioinformatic Approach to the Prediction of New Epitopes” (PLoS ONE, 2009)
No end group written: not given here.

These compounds were tested against HLA-Cw*0102 (Homo sapiens, UniProt P10321, A176E/A330V/A35S/A97T/C350S/D114A/D33F/L171W/L180R/L218V/M285V/M309V/M331V/P208H/Q277E/Q291P/R121W/R243W/R30K/S123C/S140Y/S297R/T329A/T363A/V272M/V319A) (assay: FACS-based MHC stabilisation assay (peptide binding, T2 cells)). Conditions: not given.
In the case of `CC(C)[C@H](NC(=O)[C@H](C)N)C(=O)N[C@@H](CC(=O)O)C(=O)N[C@@H](C)C(=O)N[C@@H](CC(=O)O)C(=O)N[C@@H](CC(=O)O)C(=O)N[C@@H](CO)C(=O)N[C@@H](Cc1c[nH]cn1)C(=O)N[C@@H](Cc1ccccc1)C(=O)O` [A V D A D D S H F], the EC50 is reported as over 1000 µM. ADDSHFVSI [A D D S H F V S I] showed an EC50 of over 1000 µM. For ATSPIVPSL [A T S P I V P S L], the EC50 was 4.15 µM. Compound DADDSHFVS [D A D D S H F V S] has an EC50 of over 1000 µM. Compound ELIRTVRLI has an EC50 of over 1000 µM. Compound EQFGNKTIV has an EC50 of over 1000 µM. FPISPIETV was tested, and the EC50 was over 1000 µM. In the case of “I L S P L T K G I: initial-set nonamer, Table 1 No. 13”, the “pBL50(exp)” value is reported as 3.061. Compound ILRRPTSPV [I L R R P T S P V] has an EC50 of 7.96 µM. With ILSRSKESV [I L S R S K E S V] the “pBL50 / binder class as quoted in text” value was “non-binder”. IVIWGKTPK was tested, and the EC50 was over 1000 µM. IVRMYSPTS showed an EC50 of over 1000 µM. KATSPIVPS [K A T S P I V P S] showed an EC50 of over 1000 µM. Compound LITPKKIKP has an EC50 of over 1000 µM. Compound LSPLTKGIL [L S P L T K G I L] has an EC50 of 3.79 µM. In the case of LVSAGIRKV, the EC50 is reported as over 1000 µM. Compound NCPERIATL has an EC50 of 0.201 µM. For NSTWSTEGS, the EC50 was over 1000 µM. NYTSLIHSL showed an EC50 of over 1000 µM. PQSQGVVES was tested, and the EC50 was over 1000 µM. PVPLQLPPL showed an EC50 of 3.16 µM. Compound SLEECDSEL [S L E E C D S E L] has an EC50 of 375 µM. For VDADDSHFV [V D A D D S H F V], the EC50 was over 1000 µM. With VIPMFSALS [VIPMFSALS] the EC50 was 2.45 µM. VVPRRKAKI showed an EC50 of over 1000 µM.

Same assay, conditions: Table 3 newly-designed peptides; T2 cells, peptide 200-0.04 µM, 16 h 37°C, mAb VP6G3, flow cytometry; read-out: pBL50 (exp) (converted)
In the case of ACPERIITL, the EC50 is reported as 0.185 µM. For NCPERIITA, the EC50 was 0.257 µM.

Same assay, conditions: Table 4 HIV-1 peptides; T2 cells, peptide 200-0.04 µM, 16 h 37°C, mAb VP6G3, flow cytometry; read-out: pBL50 (exp) (converted)
In the case of CAPAGFAIL, the EC50 is reported as 0.00987 µM. In the case of ELQAIYLAL [ELQAIYLAL], the EC50 is reported as 1.25 µM. In the case of FQSSMTKIL, the EC50 is reported as 0.701 µM. IVTRIVELL gave an EC50 of 1.12 µM. LLRWGFTTP gave an EC50 of 2.05 µM. LQILAIVAL [LQILAIVAL] gave an EC50 of 0.766 µM. In the case of LTEEKIKAL [LTEEKIKAL], the EC50 is reported as 5.19 µM. For RVRQGYSPL, the EC50 was 0.0866 µM.

Same assay, conditions: pBL50(exp)
With `CC(C)C[C@H](NC(=O)[C@H](C)NC(=O)[C@@H]1CCCN1C(=O)[C@H](Cc1ccc(O)cc1)NC(=O)[C@H](CC(N)=O)NC(=O)CNC(=O)[C@@H]1CCCN1C(=O)[C@H](C)NC(=O)[C@@H](N)Cc1ccccc1)C(=O)O` [F A P G N Y P A L] the EC50 was 0.189 µM. Compound `CC[C@H](C)[C@H](N)C(=O)N[C@@H](CC(C)C)C(=O)N[C@@H](CCCCN)C(=O)N[C@@H](CCC(=O)O)C(=O)N1CCC[C@H]1C(=O)N[C@H](C(=O)N[C@@H](Cc1cnc[nH]1)C(=O)NCC(=O)N[C@H](C(=O)O)C(C)C)C(C)C` [I L K E P V H G V] has an EC50 of over 1000 µM. Work on `CSCC[C@H](NC(=O)[C@H](C)NC(=O)[C@H](CCC(N)=O)NC(=O)[C@H](CO)NC(=O)[C@@H]1CCCN1C(=O)[C@@H](N)CC(C)C)C(=O)N[C@@H](CC(=O)O)C(=O)N[C@@H](CC(=O)O)C(=O)N[C@@H](CC(C)C)C(=O)O` [L P S Q A M D D L] yielded an EC50 of over 1000 µM. AAPAYSRAL [A A P A Y S R A L] showed an EC50 of 1.77 µM. ADAEKPFYV [A D A E K P F Y V] showed an EC50 of over 1000 µM. AQPQTTTPL [A Q P Q T T T P L] showed an EC50 of 0.122 µM. Work on CAPREPHVV yielded an EC50 of 0.38 µM. CMPDWLDRL was tested, and the EC50 was 0.331 µM. With DLLTSPDVG [D L L T S P D V G] the EC50 was over 1000 µM. Work on EAPMWDHWL yielded an EC50 of 0.49 µM. For ECPQGITPV, the EC50 was 0.109 µM. EFPWVFIEL was tested, and the EC50 was 0.355 µM. For EQPERYESV, the EC50 was 0.132 µM. With FAPYNKPSL [F A P Y N K P S L] the EC50 was 0.611 µM. For FMPIMKNEV, the EC50 was 0.676 µM. GADAEKPFY [G A D A E K P F Y] was tested, and the EC50 was over 1000 µM. GIPEPAHAY [G I P E P A H A Y] was tested, and the EC50 was over 1000 µM. Work on HLPETKFSE [H L P E T K F S E] yielded an EC50 of over 1000 µM. HMPDVGCIL showed an EC50 of 0.178 µM. In the case of HNPGIATPV, the EC50 is reported as 0.661 µM. With ILSPRKESV [I L S P R K E S V] the EC50 was 17.2 µM. With ILSPRSESV [I L S P R S E S V] the EC50 was 2.62 µM. ILSPRSKES [I L S P R S K E S] gave an EC50 of 292 µM. ILSPSKESV [I L S P S K E S V] was tested, and the EC50 was 11.4 µM. Work on ILSRSKESV [I L S R S K E S V] yielded an EC50 of over 1000 µM. Work on IPEPAHAYA [I P E P A H A Y A] yielded an EC50 of over 1000 µM. In the case of ITPTGTHPL [I T P T G T H P L], the EC50 is reported as 0.283 µM. KSPLDIVNL was tested, and the EC50 was 1.91 µM. LGPEKLQYL showed an EC50 of 0.151 µM. Work on LLKLASPEL [L L K L A S P E L] yielded an EC50 of over 1000 µM. Work on LLTSPDVGL [L L T S P D V G L] yielded an EC50 of 11.7 µM. For LPETKFSEL [L P E T K F S E L], the EC50 was 6.37 µM. With LSPPKKKDL [L S P P K K K D L] the EC50 was over 1000 µM. LSPRSKESV [L S P R S K E S V] gave an EC50 of 0.91 µM. In the case of LTSPDVGLL [L T S P D V G L L], the EC50 is reported as 27.4 µM. MQPSRGKTL was tested, and the EC50 was 0.17 µM. Compound NAPERIITL has an EC50 of 0.00314 µM. NAPWAVTSL [N A P W A V T S L] showed an EC50 of 0.142 µM. NCAERIITL gave an EC50 of 0.434 µM. For NCPARIITL, the EC50 was 0.114 µM. For NCPEAIITL, the EC50 was 0.193 µM. In the case of NCPEGYTSL, the EC50 is reported as 0.0724 µM. NCPERAITL gave an EC50 of 0.244 µM. In the case of NCPERIIAL [NCPERIIAL], the EC50 is reported as 0.141 µM. NCPERIITL was tested, and the EC50 was 0.0634 µM. With NEPQRIEPL the EC50 was 0.0962 µM. PLPSQAMDD [P L P S Q A M D D] was tested, and the EC50 was over 1000 µM. Work on PLSPPKKKD [P L S P P K K K D] yielded an EC50 of 10.1 µM. With QYPKGDAWV the EC50 was over 1000 µM. Work on SWPMQFDAL [SWPMQFDAL] yielded an EC50 of 0.269 µM. TDPWFHRSL was tested, and the EC50 was 0.339 µM. Work on VAPQLTFGL yielded an EC50 of 0.0162 µM. VAPWNSLSL [V A P W N S L S L] showed an EC50 of 0.703 µM. In the case of VRPMRQWPL, the EC50 is reported as 3.8 µM. WAPHTDTSL showed an EC50 of 0.0126 µM. Work on WGPGIIWAL [WGPGIIWAL] yielded an EC50 of 3.63 µM. WRPDVNMQL showed an EC50 of 2.88 µM. With YAQPQTTTP [Y A Q P Q T T T P] the EC50 was 5.96 µM. In the case of YMPTASCDL, the EC50 is reported as 0.0129 µM. YMTPSSRPL [Y M T P S S R P L] showed an EC50 of over 1000 µM.

Same assay, conditions: pBL50 / binder class as quoted in text
For ILSPSKESV [peptide 17], the EC50 was 1 to 31.6 µM.
